# Results: patent publication US20220152085A1, “COMBINATION IMMUNOREGULATION AND USES THEREOF” (Ohio State Innovation Foundation, priority 2019, published 2022)
# Counter-ions that a name gives are not always drawn.
# Tested on: E.G7-OVA cells
# Assay: Endocytic pathways: cellular uptake of PL1-Alexa-Fluor 647-labeled RNA nanoparticles with endocytic inhibitors, flow cytometry
# Format: cell-based
# Details: inhibitor 0.5 h before nanoparticles, flow cytometry after 3 h, FIG. 13
# Description: E.G7-OVA cells were treated with 5-(N-Methyl-N-isopropyl)amiloride (EIPA), chlorpromazine hydrochloride (CPZ), or methyl-β-cyclodextrin (MβCD). After 0.5 h, cells were treated with PL1-Alexa-Fluor 647-labeled RNA nanoparticles. After 3 h, cells were analyzed by flow cytometry. All data are from n=3 biologically independent samples and are presented as mean±S.E.M. Statistical significance was analyzed by the two-tailed Student's t-test. *P<0.05.
# Biomimetic compounds, phospholipids and glycolipids, are composed of a biomimetic head (phosphate head or glyco head), an ionizable amino core, and multiple hydrophobic tails (FIG. 11). These phospholipid and glycolipid derivatives (PLs and GLs) were synthesized according to previously reported procedures. See, for example, WO/2019/027999. […] Following this synthetic route, PL1-18 and GL1-16 materials were synthesized (FIG. 4C), which were characterized by […] nuclear magnetic resonance (NMR) and mass spectroscopy (MS) (FIG. 4C). Next, PLs and GLs nanoparticles were formulated with firefly luciferase mRNA (FLuc mRNA), and were characterized according to size, surface charge, and mRNA encapsulation efficiency (FIGS. 12A-12C). […]
row,Molecule,inhibition of cellular uptake of PL1 nanoparticles
1,"CN(C)CCCN1c2ccccc2Sc2ccc(Cl)cc21 [CPZ, chlorpromazine hydrochloride]",56%
2,methyl-β-cyclodextrin [MβCD],39%
